Measurements from US12642783B2, “Method for treating vaso occlusive crises associated with Sickle cell disease” (Nicox SA, priority 2020, dated 2026).

Columns and labels:
[1] = test system: vaso-occlusive crises; settings: sickle cell disease; cited from earlier work
[2] = test system: blood pressure; settings: 3 pivotal trials, 2,734 patients with osteoarthritis of the hip or knee; cited from earlier work
[3] = test system: cGMP; test: cGMP levels after intravenous administration in Sickle Cell mouse model (thrombin challenge); type: in vivo, mice; settings: for cGMP levels compared to thrombin alone or naproxen administration: Homozygous Sickle Cell transgenic mice, 15 mg/kg intravenous, p<0.01 (FIG. 2)
Method: (§1) This trial was conducted to assess the efficacy of 4-(nitrooxy)butyl-(2S)-2-(6-methoxy-2-naphthyl) propanoate (naproxcinod) to increase Nitrite (a precursor to NO), and cGMP in Homozygous Townes Sickle Cell transgenic mice.
(§2) Homozygous Sickle Cell transgenic mice were treated with either 4-(nitrooxy)butyl-(2S)-2-(6-methoxy-2-naphthyl) propanoate (naproxcinod) (15 mg/kg) or naproxen (15 mg/kg—as a control) or saline (as a vehicle control) by intravenous injection. After one hour, the mice were injected with thrombin (1 u/20 g) to induce platelet activation. Blood was drawn at […] after thrombin administration. Plasma nitrite levels were measured as a marker of nitric oxide bioavailability. cGMP levels were measured after addition of IBMX (3-Isobutyl-1-methylxanthine) (100 uM) to prevent cGMP degradation. Platelets were isolated and activation measured by surface expression of p-selectin.

[4] = test system: Nitrite; test: Plasma nitrite levels after intravenous administration in Sickle Cell mouse model (thrombin challenge); type: in vivo; settings: Homozygous Sickle Cell transgenic mice, 15 mg/kg intravenous, at one hour after thrombin (FIG. 1)
Method: as §1, §2

[5] = test system: osteoarthritis (OA) of the knee; settings: human studies, OA of the knee patients; cited from earlier work
[6] = approved package insert (Novartis, 2019); cited from earlier work

Molecule: NC(=O)NO [Droxia, hydroxyurea]
- frequency of vaso-occlusive crises [1]: reduce the frequency

Molecule: NC(=O)CC[C@H](N)C(=O)O [Endari, L-glutamine]
- frequency of vaso-occlusive crises [1]: reduce the frequency

Molecule: COc1ccc2cc([C@H](C)C(=O)OCCCCO[N+](=O)[O-])ccc2c1 [naproxcinod, 4-(nitrooxy)butyl-(2S)-2-(6-methoxy-2-naphthyl) propanoate]
- hypertensive burden induced by most NSAIDs [2]: reduce some of the hypertensive burden
- cGMP levels compared to thrombin alone or naproxen administration ([3]; at 30 minutes after thrombin): significantly increased
- cGMP levels compared to thrombin alone or naproxen administration ([3]; at 60 minutes after thrombin): significantly increased
- cyclic guanosine monophosphate level (cGMP level) ([3]; Sickle cell animal model, summary statement): able to increase
- nitrite concentration compared to thrombin alone or naproxen administration [4]: statistically greater
- management of the signs and symptoms of OA [5]: clinical efficacy and safety

B1: crizanlizumab-tmca (antibody, chains of the INN, looked up, V domains shown)
VH: QVQLVQSGAEVKKPGASVKVSCKVSGYTFTSYDINWVRQAPGKGLEWMGWIYPGDGSIKYNEKFKGRVTMTVDKSTDTAYMELSSLRSEDTAVYYCARRGEYGNYEGAMDYWGQGTLVTVSS
VL: DIQMTQSPSSLSASVGDRVTITCKASQSVDYDGHSYMNWYQQKPGKAPKLLIYAASNLESGVPSRFSGSGSGTDFTLTISSLQPEDFATYYCQQSDENPLTFGGGTKVEIK
notes: FDA-approved drug for vaso-occlusive crises complication in sickle cell disease
- frequency of vaso-occlusive crises [1]: reduce the frequency
- incidence rate of arthralgia [6]: 18%
- incidence rate of back pain [6]: 15%
